According to PMC3433420 (PLoS ONE, 2012):
Residues, ends and D or L forms follow the SMILES beside them.

Tests used:
SH2 and PTB domains [1] = target: T1, SH2 and PTB domains (Homo sapiens, UniProt Q08881); experiment: In-house protein microarrays (with or without 5 mM DTT), protein named per line; assay type: binding; details: protein ITK
T1 construct: thioredoxin; made in house; host or cells: BL21(DE3)pLysS E. coli
T1 sequence (Q08881 1-620): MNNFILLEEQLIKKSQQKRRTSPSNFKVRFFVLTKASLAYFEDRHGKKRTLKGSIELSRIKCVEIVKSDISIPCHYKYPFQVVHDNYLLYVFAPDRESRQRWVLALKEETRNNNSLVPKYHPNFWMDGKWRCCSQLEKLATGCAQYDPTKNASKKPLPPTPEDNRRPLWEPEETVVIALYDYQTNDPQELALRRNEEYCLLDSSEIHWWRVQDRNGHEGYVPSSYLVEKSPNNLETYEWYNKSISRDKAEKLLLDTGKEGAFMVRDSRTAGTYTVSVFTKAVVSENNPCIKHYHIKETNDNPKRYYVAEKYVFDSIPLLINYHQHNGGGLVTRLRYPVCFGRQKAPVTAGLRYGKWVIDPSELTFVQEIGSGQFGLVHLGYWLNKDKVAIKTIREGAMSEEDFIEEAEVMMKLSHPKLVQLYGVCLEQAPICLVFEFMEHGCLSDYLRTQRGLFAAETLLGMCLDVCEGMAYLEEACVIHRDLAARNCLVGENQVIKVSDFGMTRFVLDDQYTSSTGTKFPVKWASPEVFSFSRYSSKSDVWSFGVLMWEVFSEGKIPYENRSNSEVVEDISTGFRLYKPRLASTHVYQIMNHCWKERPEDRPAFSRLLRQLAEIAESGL
Summary of the method: (§1)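 KD values come from rhodamine fluorescence of duplicate spots after subtraction of a thioredoxin control. Domains were printed at ~40 µM on aldehyde slides, blocked 1 h at room temperature in pH 7.8 HEPES/KCl buffer with 5 mM DTT and 1% BSA, then peptide-probed.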

SH2 and PTB domains [2] = target: T2, SH2 and PTB domains (Homo sapiens, UniProt P29353); experiment: as above; assay type: binding; details: protein SHC1, array fabrication # 39329
T2 construct: thioredoxin; made in house; host or cells: BL21(DE3)pLysS E. coli
T2 sequence (P29353 1-583): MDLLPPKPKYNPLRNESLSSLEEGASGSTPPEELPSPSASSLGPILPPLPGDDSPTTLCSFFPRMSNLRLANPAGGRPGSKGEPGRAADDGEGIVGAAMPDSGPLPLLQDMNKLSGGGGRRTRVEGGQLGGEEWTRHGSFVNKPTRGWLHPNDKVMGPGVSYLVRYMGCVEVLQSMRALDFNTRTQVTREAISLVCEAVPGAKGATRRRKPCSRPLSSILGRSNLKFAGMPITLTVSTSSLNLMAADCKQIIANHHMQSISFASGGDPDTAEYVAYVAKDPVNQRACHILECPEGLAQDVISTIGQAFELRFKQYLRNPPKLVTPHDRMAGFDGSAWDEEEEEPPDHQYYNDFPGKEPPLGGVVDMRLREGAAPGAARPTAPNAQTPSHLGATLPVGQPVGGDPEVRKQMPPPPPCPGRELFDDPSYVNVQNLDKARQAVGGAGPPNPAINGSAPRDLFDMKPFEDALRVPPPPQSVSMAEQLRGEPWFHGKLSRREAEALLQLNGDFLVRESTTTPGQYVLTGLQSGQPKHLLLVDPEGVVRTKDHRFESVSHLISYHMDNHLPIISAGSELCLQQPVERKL
Summary of the method: as §1

| Structure (SMILES) | Kd (SH2 and PTB domains [1]; PM assay replicate # 39307, array fabrication # 39286) | Kd (SH2 and PTB domains [2]; PM assay replicate # 39336) | Kd (SH2 and PTB domains [2]; PM assay replicate # 39337) | Kd (SH2 and PTB domains [1]; PM assay replicate # 39336, array fabrication # 39329) | Kd (SH2 and PTB domains [1]; PM assay replicate # 39337, array fabrication # 39329) | Kd (SH2 and PTB domains [2]; PM assay replicate # 39331) |
| --- | --- | --- | --- | --- | --- | --- |
| CCN(CC)c1ccc2c(-c3ccc(C(=O)N[C@@H](CC(N)=O)C(=O)NCC(=O)N4CCC[C@H]4C(=O)N4CCC[C@H]4C(=O)N[C@@H](CCCCN)C(=O)N[C@@H](C)C(=O)N[C@@H](CCC(=O)O)C(=O)N[C@@H](CC(=O)O)C(=O)N[C@@H](CCC(=O)O)C(=O)N[C@@H](Cc4ccc(OP(=O)(O)O)cc4)C(=O)N[C@H](C(=O)N[C@@H](CC(N)=O)C(=O)N[C@@H](CCC(=O)O)C(=O)N4CCC[C@H]4C(=O)N[C@@H](CC(C)C)C(=O)N[C@@H](Cc4ccc(O)cc4)C(=O)N[C@@H](CC(C)C)C(=O)N[C@@H](CC(=O)O)C(=O)O)C(C)C)cc3C(=O)[O-])c3ccc(=[N+](CC)CC)cc-3oc2c1 [ErbB4 1202 (18-mer)] (HELM PEPTIDE1{[CCN(CC)c1ccc2c(-c3ccc(C(=O)[*:2])cc3C(=O)[O-])c3ccc(=[N+](CC)CC)cc-3oc2c1].N.G.P.P.K.A.E.D.E.[O=C([C@H](Cc1ccc(OP(=O)(O)O)cc1)N[*:1])[*:2]].V.N.E.P.L.Y.L.D}$$$$V2.0) | 720 nM | – | – | – | – | – |
| CC(C)C[C@H](NC(=O)[C@@H]1CCCN1C(=O)[C@H](C)NC(=O)[C@@H](NC(=O)[C@H](Cc1ccc(OP(=O)(O)O)cc1)NC(=O)CNC(=O)[C@H](CC(=O)O)NC(=O)[C@@H](NC(=O)[C@@H](N)CCC(=O)O)[C@@H](C)O)C(C)C)C(=O)N[C@H](C(=O)N[C@@H](CS)C(=O)N[C@@H](CO)C(=O)N[C@@H](CC(=O)O)C(=O)O)[C@@H](C)O [ErbB2 pY1127] | – | 980 nM | 820 nM | 800 nM | 2580 nM | – |
| CC(C)C[C@H](NC(=O)[C@@H]1CCCN1)C(=O)N[C@@H](CCC(N)=O)C(=O)N[C@@H](CCCNC(=N)N)C(=O)N[C@@H](Cc1ccc(OP(=O)(O)O)cc1)C(=O)N[C@@H](CO)C(=O)N[C@@H](CCC(=O)O)C(=O)N[C@@H](CC(=O)O)C(=O)N1CCC[C@H]1C(=O)N[C@H](C(=O)N[C@H](C(=O)N1CCC[C@H]1C(=O)N[C@@H](CC(=O)O)C(=O)O)C(C)C)[C@@H](C)O [ErbB2 pY1112] (HELM PEPTIDE1{P.L.Q.R.[O=C([C@H](Cc1ccc(OP(=O)(O)O)cc1)N[*:1])[*:2]].S.E.D.P.T.V.P.D}$$$$V2.0) | – | 3060 nM | – | – | – | 1260 nM |
